Measured values taken from patent US20040198716A1, “Cysteine protease inhimbitors” (priority 2001, published 2004).

Molecular target: T1, human recombinant caspase-3 (Homo sapiens, UniProt P42574)
T1 construct: purchased Sigma
T1 sequence (P42574 29-175 limits assumed): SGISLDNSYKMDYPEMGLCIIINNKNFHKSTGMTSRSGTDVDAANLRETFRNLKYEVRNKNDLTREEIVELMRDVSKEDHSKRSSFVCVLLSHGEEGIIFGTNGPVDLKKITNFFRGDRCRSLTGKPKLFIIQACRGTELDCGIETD
T1 sequence (P42574 176-277 limits assumed): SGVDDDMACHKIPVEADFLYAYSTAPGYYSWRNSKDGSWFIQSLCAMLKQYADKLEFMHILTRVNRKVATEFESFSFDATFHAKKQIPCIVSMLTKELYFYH
Test: In vitro high throughput caspase-3 assay
Assay type: biochemical
Details: for Percent Activity: percentage of the positive control, 20-250 μM test compound, lower = better inhibition, negative = better than control caspase inhibitor; for Ki: calculated from IC50 according to Equation 1, read-out: Ki(app); for IC50: fixed substrate concentration of 55 μM, inhibitors 75 to 0.067 μM in duplicate
Description: Purified Human recombinant caspase-3, fluorescence labeled substrate (Acetyl-Asp-Glu-Val-Asp-7-amino-4-trifluoromethyl coumarin), and known inhibitor (Z-Asp-Glu-Val-Asp-fluoromethyl ketone) can be purchased from Sigma Chemical Co. (St. Louis, Mo.). The enzyme reactions are carried out at room temperature in 10 mM PIPES pH=7.4, 2 mM EDTA, 0.1% CHAPS, 5 mM DTT reaction buffer. Each well on the 96 well plate contains the above reaction buffer plus 55 μM fluorescence labeled substrate, 0.125 μg caspase-3, and 20-250 μM test compound. Positive and negative controls are present on each assay plate. A standard curve is generated using 7-amino-4-trifluoromethyl coumarin in the concentration range from 0.15 μM to 5.0 μM. The reactions are preferably read every 0.5 hours using a fluorescence microtiter plate reader set for 390 nm excitation and 538 nm emission for the first 4 hours after which the plates are left at room temperature overnight. One reading is taken the next morning as a final measurement.
To determine the caspase inhibitory activity of these compounds, the in vitro high throughput caspase-3 assay presented herein was utilized. Purified human recombinant caspase-3, fluorescence labeled substrate (Acetyl-Asp-Glu-Val-Asp-7-amino-4-trifluoromethyl coumarin), and known inhibitor (Z-Asp-Glu-Val-Asp-fluoromethyl ketone) were purchased from Sigma. The enzyme reactions were carried out at room temperature in 10 mM PIPES pH=7.4, 2 mM EDTA, 0.1% CHAPS, 5 mM DTT reaction buffer. Each well on the 96 well plate contained the above reaction buffer plus 55 μM fluorescence labeled substrate, 0.125 μg caspase-3, and 20-250 μM test compound. Positive and negative controls were present on each assay plate. A standard curve was generated using 7-amino-4-trifluoromethyl coumarin in the concentration range from 0.15 μM to 5.0 μM. The reactions were read every 0.5 hours using a fluorescence microtiter plate reader set for 390 nm excitation and 538 nm emission for the first 4 hours after which the plates were left at room temperature overnight. One reading was taken the next morning as a final measurement.
Ki determinations were carried out using the above assay system. […] Ki(app) was calculated according to Equation 1: [formula]
The concentration of inhibitors ranged from 75 to 0.067 μM with each inhibitor concentration assayed in duplicate. The Km for the substrate was determined from a standard Lineweaver-Burke plot.

Percent Activity [%]	Ki [nM]	IC50 [µM]	Structure (SMILES)
45.72			O=C1c2ccccc2C(=O)c2c(O)ccc(O)c21 [cpi0130]
−2.336	1410	8.9	O=C1c2ccccc2C(=O)c2c1cc(S(=O)(=O)O)c(O)c2O [cpi0136.0005]
−2.295	762	4.8	O=C1c2ccccc2C(=O)c2c(O)c(O)cc(O)c21 [cpi0136.0006]
−0.8437	1770	11.2	Nc1ccc(O)c2c1C(=O)c1ccccc1C2=O [cpi0136.0007]
2.42	1130	7.13	O=C(O)Cc1cc(O)c2c(c1O)C(=O)c1ccccc1C2=O [cpi0136.0011]
−0.6303			CC(=O)OCCNc1cc(Br)c2noc3c2c1C(=O)c1ccccc1-3 [cpi0156.0034]
11.08			O=C1c2ccccc2-c2onc3ccc(Oc4c(F)c(F)c(F)c(F)c4F)c1c23 [cpi0156.0042]
3.338			O=C(NC1CCCCC1)c1ccc2c3c(onc13)-c1ccccc1C2=O [cpi0156.0045]
28.63			O=C1c2ccccc2-c2onc3c(N4CCN(c5ccccc5)CC4)ccc1c23 [cpi0156.0047]
18.82			O=C1c2ccccc2-c2onc3c(N4CCCCC4)cc(Nc4ccccc4)c1c23 [cpi0156.0048]
6.782			CNc1cc(Nc2ccccc2)c2c3c(onc13)-c1ccccc1C2=O [cpi0156.0051]
31.97			CN(C)c1cc(Nc2ccccc2)c2c3c(onc13)-c1ccccc1C2=O [cpi0156.0052]
−3.264			COc1ccc2noc3c2c1C(=O)c1ccccc1-3 [cpi0156.0054]

Continued, compound first:

Structure (SMILES)	Percent Activity [%]	Ki [nM]	IC50 [µM]
CC(C)=CCC(O)C1CC(=O)c2c(O)ccc(O)c2C1=O (mixture of isomers) [cpi0138.0001]	22.68		
CC(C)=CCC(O)C1CC(=O)c2c(O)ccc(O)c2C1=O (mixture of isomers) [cpi0138.0002]	30.37		
O=C1C(Cl)=C(Cl)C(=O)c2ccccc21 [cpi0128]	1.67	1050	6.62
O=C(O)c1c(O)c2c(c(O)c1Cl)C(=O)c1ccccc1C2=O [cpi0136.0001]	−8.938	807	5.09
O=C1C=CC(=O)c2c(O)cccc21 [cpi0136.0002]	−6.091	2.6	0.02
NC(=O)NN=C1C=CC(=O)c2c(O)cccc21 [cpi0136.0004]	−3.391	68.2	0.43
O=C1C=CC(=NNc2cc([N+](=O)[O-])cc([N+](=O)[O-])c2)c2cccc(O)c21 [cpi0136.0008]	−0.715	557	3.51
O=C1C(c2ccc(O)c(O)c2)=C(O)C(=O)c2c(O)cc(O)cc21 [cpi0136.0010]	1.452	9760	61.5
Cc1ccc2[nH]c3c(cc(O)c4c(=O)c5ccccc5c(=O)c43)oc2c1 [cpi0136.0017]	24.8	16700	106
O=C1C=CC(=NNc2ccc([N+](=O)[O-])cc2[N+](=O)[O-])c2cccc(O)c21 [cpi0136.0020]	36.98	54200	342
COc1c(C)c([N+](=O)[O-])c(O)c2c1C(=O)c1ccccc1C2=O [cpi0136.0024]	51.3817	3050	19.2
O=C(COc1cc(O)c2c(=O)cc(-c3ccccc3)oc2c1)OCc1ccccc1 [cpi0136.0025]	54.1256	40500	255
O=C1C(Br)=C(Br)C(=O)c2c(O)c(Br)c(Br)c(O)c21 [cpi0140]		503	3.17
O=C1C(Cl)=C(N2CCOCC2)C(=O)c2ccccc21 [cpi0156.0044]	−1.376		
CC(=O)N(Cc1ccccc1)C1=C(Cl)C(=O)c2ccccc2C1=O [cpi0156.0046]	−1.772		
